This passage reports EC50 and Toxicity in mice results from patent US8436049B2, “Uses of pentamidine and related compounds” (State of Oregon Acting By and Through the State Board of …, priority 2008, dated 2013).

Each structure is given as a SMILES string. pEC50: −log10 of the molar value. Several values for one entry are separate records, joined by “and”; a condition that tells them apart may be missing. Equal values may be shown once.

In one series the target is T1, MBNL-cTNT interaction (Homo sapiens, UniProt Q9NR56).
T1 construct: Both the full length MBNL and MBNL (1-260) constructs were cloned using BamHI and NotI restriction sites; GST (N, cleaved yes); made in house; host or cells: E. coli BL21-Star
T1 sequence (Q9NR56 1-382 isoform Q9NR56-5): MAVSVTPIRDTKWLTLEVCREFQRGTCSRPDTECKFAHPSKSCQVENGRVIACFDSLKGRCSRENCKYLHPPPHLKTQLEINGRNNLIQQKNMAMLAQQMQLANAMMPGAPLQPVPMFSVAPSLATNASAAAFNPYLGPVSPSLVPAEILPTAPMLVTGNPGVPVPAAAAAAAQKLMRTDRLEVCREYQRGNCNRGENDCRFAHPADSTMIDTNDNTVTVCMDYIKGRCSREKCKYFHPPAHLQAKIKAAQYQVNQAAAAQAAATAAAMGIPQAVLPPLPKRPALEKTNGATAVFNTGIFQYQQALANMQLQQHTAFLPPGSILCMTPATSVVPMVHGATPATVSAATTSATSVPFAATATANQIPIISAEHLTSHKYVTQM
Put plainly: Gel shift assay, disruption of MBNL binding to cTNT pre-mRNA site. The conditions noted are these: read-out: EC50 for disruption of MBNL binding to cTNT target construct. Here is the method:
Solutions for the protein-RNA binding experiments contained 125 mM NaCl, 5 mM MgCl2, 20 mM Tris (pH 7.5), 7.5% glycerol, 2 mg/ml bovine serum albumin, and 0.1 mg/ml heparin. Prior to incubation, RNA substrates were annealed by incubation at 95° C. for 2 minutes and then placed directly on ice for 20 minutes in 66 mM NaCl, 6.7 mM MgCl2, and 27 mM Tris (pH 7.5). Protein was then added to the RNA in the presence or absence of the small molecule. The binding reaction was carried out in a 10 μL volume and was incubated for 10 minutes at room temperature before 2-4 μL were loaded on a pre-chilled 4° C. gel. […]
For binding curves, gels were quantified using ImageQuant® software (Molecular Dynamics, Piscataway, N.J.). The percent RNA bound was determined by taking the ratio of RNA-protein complex to total RNA, per lane. […] Binding curves were graphed using KaleidaGraph software (Synergy Software, Reading, Pa.). For the neomycin B and CUG8 gel shift, the apparent Kd was determined using Equation 1, where Y=fraction bound, m0=small molecule concentration, m1=total RNA concentration, and m2=Kd. […]
Pentamidine has been shown previously to bind to other RNAs and DNAs (Zhang et al., RNA 6:937-951, 2000); therefore, we determined pentamidine binding to an endogenous target of MBNL. […]

For series [1] the following is noted: mouse, in vivo.
Procedure: Mouse handling and experimental procedures were conducted in accordance with the Association for Assessment and Accreditation of Laboratory Animal Care. HSA^LR transgenic mice in line 20b expressing human skeletal actin mRNA with ˜250 CUG repeats in the 3′ UTR were used (Mankodi et al., Science 289:1769-1772, 2000). Age- and gender-matched HSA^LR mice were injected intraperitoneally with pentamidine or saline (control). For a low-dose regimen, 25 mg/kg of pentamidine was administrated twice daily for 5 days. For a higher-dose regimen, 40 mg/kg of pentamidine was injected once daily for 7 days. Mice were sacrificed one day after the last injection, and vastus muscle was obtained for splicing analysis. […] The PCR products were analyzed on agarose gels and scanned with a laser fluorimager (Typhoon, GE Healthcare, Piscataway, N.J.). Differences between the two groups were evaluated by Student's t-test.
The ability of pentamidine to rescue mis-splicing in a mouse model (HSA^LR) where CUG repeats are expressed was tested. Pentamidine was administered by intraperitoneal injection in two dosage regimens, and mis-splicing of the Clc-1 and Serca1 pre-mRNAs was measured.

On to `N=C(N)c1ccc(OCCCCCOc2ccc(C(=N)N)cc2)cc1` [pentamidine], for which the pEC50 at MBNL-cTNT interaction was ~4.07 and 4.07. The Toxicity in mice entry in series [1] is “substantial toxicity”.
